Our source for the IC50 and PARP/PARP10 values is patent publication US10899733B2, “Inhibitors of PARPs that catalyze mono-ADP-ribosylation” (OREGON HEALTH & SCIENCE UNIVERSITY, priority 2017, dated 2021).

In this experiment the target is T1, PARP8 (Homo sapiens, UniProt Q8N3A8).
T1 sequence (Q8N3A8 1-854): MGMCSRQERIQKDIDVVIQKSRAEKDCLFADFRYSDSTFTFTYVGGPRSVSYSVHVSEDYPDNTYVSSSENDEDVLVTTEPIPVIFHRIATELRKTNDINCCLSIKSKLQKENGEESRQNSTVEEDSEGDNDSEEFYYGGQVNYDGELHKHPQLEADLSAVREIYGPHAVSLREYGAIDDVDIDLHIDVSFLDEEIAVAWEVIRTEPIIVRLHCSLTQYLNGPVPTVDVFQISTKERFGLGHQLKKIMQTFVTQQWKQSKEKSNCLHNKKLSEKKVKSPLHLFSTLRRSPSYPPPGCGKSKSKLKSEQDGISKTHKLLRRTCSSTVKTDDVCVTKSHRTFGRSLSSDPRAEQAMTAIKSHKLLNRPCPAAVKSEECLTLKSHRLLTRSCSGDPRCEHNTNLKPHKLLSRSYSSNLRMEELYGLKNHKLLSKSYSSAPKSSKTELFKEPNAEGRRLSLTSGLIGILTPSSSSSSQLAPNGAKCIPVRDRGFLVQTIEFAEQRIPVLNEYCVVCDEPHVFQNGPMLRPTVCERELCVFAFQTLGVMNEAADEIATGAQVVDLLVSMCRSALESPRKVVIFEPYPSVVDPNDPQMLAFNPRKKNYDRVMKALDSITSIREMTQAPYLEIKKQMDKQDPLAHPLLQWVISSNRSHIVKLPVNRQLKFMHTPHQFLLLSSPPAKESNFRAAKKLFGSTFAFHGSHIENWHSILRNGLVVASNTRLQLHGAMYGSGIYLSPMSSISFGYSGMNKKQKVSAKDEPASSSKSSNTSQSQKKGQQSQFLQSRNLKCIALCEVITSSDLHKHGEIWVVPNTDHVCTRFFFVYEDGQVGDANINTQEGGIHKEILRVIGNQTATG
Kind of experiment: PARP panel: ADP-ribosylation of SRPK2 using 6-a-NAD+. The format is biochemical.

Broadly, the IC50 is the concentration that inhibits the measured activity by half. A low value points to inhibition by little substance. `Cc1c(-c2ccnc(C(F)(F)F)c2)ccc2c1CCNC2=O` [Compound 22, 5-methyl-6-(2-(trifluoromethyl)pyridin-4-yl)-3,4-dihydroisoquinolin-1(2H)-one]: where the note is “6-a-NAD+”, the IC50 was over 30 µM. This compound also came in with a PARP/PARP10 (PARP8 over PARP10cat) of over 10.
